The source of these data is patent publication US20220144826A1, “Heteroaromatic and Heterobicyclic Aromatic Derivatives for the Treatment of Ferroptosis-Related Disorders” (COLLABORATIVE MEDICINAL DEVELOPMENT, LLC, priority 2019, published 2022).

Each structure is given as a SMILES string.

One assay concerns N27 rat dopaminergic neural cells. As to the kind of experiment: MTT assay in N27 rat dopaminergic neural cells: inhibition of RSL3-induced cell death (ferroptosis). To be noted: Rattus norvegicus, N27, 24 h, ferroptosis induced by 0.5 μM RSL3, 24 hours, viability by MTT. It is filed as cell-based. As for the experimental part: MTT Assay in N27 Rat Dopaminergic Neural Cells
N27 rat dopaminergic neural cells (Millipore, SCC048) were cultured in RPMI-1640 media (Wisent, 350-000) supplemented with 1×GlutaMAX (Gibco, 35050-061), 10% FBS (embryonic stem cell qualified; Wisent, 920-040), and 1× Penicillin-Streptomycin (Wisent, 450-201). Cells were grown in humidified tissue culture incubator at 37° C. with 5% CO2, for up to 10 passages. To evaluate the ability of test compounds to inhibit RSL3-induced cell death, N27 cells were seeded in clear 96-well tissue culture plates (Sarstedt, 83.3924) at a density of 15,000 cells/well. On the next day, the medium was changed to fresh complete RPMI-1640. Eight-point dilution series of test compounds were added to the cells. Then, ferroptosis was induced by addition of 0.5 μM RSL3 (vehicle-treated cells served as control). Ferrostatin-1 (Fer-1) was included in each assay as control inhibitor of ferroptosis. Plates were incubated for 24 hours at 37° C. in a tissue culture incubator, then cell viability was determined by MTT assay. Briefly, Thiazolyl Blue Tetrazolium Bromide [3-(4,5-dimethylthiazol-2-yl)-2,5-diphenyltetrazolium bromide or “MTT” ] (Sigma) stock solution (5 mg/mL in PBS, sterilized by filtration) was diluted 1:1 with complete growth medium, and added on the cells to a final concentration of 0.5 mg/mL. Cells were incubated with MTT for 4 hours at 37° C., protected from light, in a humidified, 5% CO2 atmosphere. Medium was then completely removed from the wells by gentle aspiration and converted MTT formazan crystals were dissolved in 150 μL of DMSO. Absorbance of converted dye was measured at 595 nm with background subtraction at 690 nm using the BioTek Cytation5 Microplate Reader. Blank reading (absorbance from wells containing media and vehicle only, no cells) was removed from all sample wells. Viability was calculated as a percentage of control cells (vehicle-treated cells were set as 100% viability). Dose-response curves were drawn and IC50 values were calculated using GraphPad Prism software, version 7.
`CCC(C)Nc1ccc(-c2cncnc2)nc1NC1CCCC1` (centres unmarked) [Compound H-80, N^2-cyclopentyl-6-pyrimidin-5-yl-N^3-sec-butyl-pyridine-2,3-diamine] returned an IC50 of 7 nM.
Same read-out and setting: next, `CCCCC(=O)c1cc(N)c2c(c1)CCCN2` [Compound B-059, 1-(8-amino-1,2,3,4-tetrahydroquinolin-6-yl)pentan-1-one]: 149 nM; `CCCCN(C)c1nc2c(c(NC3CCCC3)n1)NCCC2` [Compound B-434, N2-Butyl-N4-cyclopentyl-N2-methyl-5,6,7,8-tetrahydropyrido[3,2-d]pyrimidine-2,4-diamine]: 397 nM.
As to `Clc1nc2c(c(NC3CCCC3)n1)NCCC2` [Compound J-84], the IC50 was determined as 273 nM.
Still for that read-out and setting: next, `CC1(Nc2nc(-c3ccncc3)nc3c2NCCC3)CCOC1` (centres unmarked) [Compound P-71, N-(3-methyltetrahydrofuran-3-yl)-2-(4-pyridyl)-5,6,7,8-tetrahydropyrido[3,2-d]pyrimidin-4-amine]: 463 nM; `c1ccc(-c2cn(-c3nc4c(c(NC5CCCC5)n3)NCCC4)nn2)cc1` [Compound A-31, N-cyclopentyl-2-(4-phenyltriazol-1-yl)-5,6,7,8-tetrahydropyrido[3,2-d]pyrimidin-4-amine]: 21 nM; `CCOC(=O)c1cc2c(c(C(=O)C(F)(F)F)c1)NC(C)(C)C=C2` [Compound B-101, Ethyl 2,2-dimethyl-8-(2,2,2-trifluoroacetyl)-1,2-dihydroquinoline-6-carboxylate]: > 3000 nM.
The same measure, in the same setting: next, `CC1(Nc2nc(-c3ccc(F)cc3)ccc2NC2CCC2)CCOC1` (centres unmarked) [Compound P-54, N^3-cyclobutyl-6-(4-fluorophenyl)-N^2-(3-methyltetrahydrofuran-3-yl)pyridine-2,3-diamine]: 3 nM; `CCCCC(=O)c1cc2c(c(-c3ccncc3)c1)NCCC2` [Compound Q-950, 1-[8-(4-pyridyl)-1,2,3,4-tetrahydroquinolin-6-yl]pentan-1-one]: > 3000 nM; `CCC(C)Nc1cnc(-c2ccncc2)nc1NC1CCCC1` (centres unmarked) [Compound F-88, N^4-cyclopentyl-2-(4-pyridyl)-N^5-sec-butyl-pyrimidine-4,5-diamine]: 106 nM.
The same measure, in the same setting: next, `CCCCC(=O)c1cc(N)c2c(c1)CCCN2S(=O)(=O)CC(C)C` [Compound B-060]: 4020 nM; `CCC(C)Nc1ccc(-c2ccc(C)cc2)nc1NC1CCCC1` (centres unmarked) [Compound H-61, N^2-cyclopentyl-6-(p-tolyl)-N^3-sec-butyl-pyridine-2,3-diamine]: 7 nM.
Compound `CC1(Nc2nc(-c3ccc(F)cc3)ccc2NC2CCOC2)CCOC1` (centres unmarked) [Compound M-23, 6-(4-fluorophenyl)-N^2-(3-methyltetrahydrofuran-3-yl)-N^3-tetrahydrofuran-3-yl-pyridine-2,3-diamine] had an IC50 of 3 to 6 nM.
As for `CCCCC(=O)c1cc(N)c2c(c1)CCCN2Cc1ccccc1` [Compound B-133], the IC50 stood at 2900 nM.
On to `CCOC(=O)c1cc(N)c2c(c1)OCCN2` [Compound I-85], for which the IC50 is > 1000 nM.
As for `CN(C)C(=O)c1ccc(-c2ccc(NC3CCC3)c(NC3(C)CCOC3)n2)cc1` (centres unmarked) [Compound P-53, 4-[5-(cyclobutylamino)-6-[(3-methyltetrahydrofuran-3-yl)amino]-2-pyridyl]-N,N-dimethyl-benzamide], the 50% inhibitory concentration (IC50) was 24 nM.
For the compound `CCCC#Cc1nc2c(c(NC3CCCC3)n1)NCCC2` [Compound A-27, N-cyclopentyl-2-pent-1-ynyl-5,6,7,8-tetrahydropyrido[3,2-d]pyrimidin-4-amine], the IC50 is 34 nM.
The compound `CCOC(=O)c1ccc(NC2CCCCC2)c(N)n1` [Compound B-626, FER-1] gave an IC50 of 108 nM.
Consider `CCCCC(O)c1cc2c(c(NC(C)(C)C)n1)NCC(C(F)(F)F)C2` (centres unmarked) [Compound R-812, 1-[8-(tert-butylamino)-3-(trifluoromethyl)-1,2,3,4-tetrahydro-1,7-naphthyridin-6-yl]pentan-1-ol], for which 40 nM corresponded to half-maximal inhibition (IC50).
Still for that read-out and setting: next, `CCCCC(=O)c1nc(NC2CCCC2)c2c(n1)OCCN2` [Compound B-763, 1-[4-(cyclopentylamino)-5H,6H,7H-pyrimido[4,5-b][1,4]oxazin-2-yl]pentan-1-one]: 391 nM; `CCCCCc1ccc(NC(C)CC)c(NC2CCCC2)n1` (centres unmarked) [Compound H-72, N^2-cyclopentyl-6-pentyl-N^3-sec-butyl-pyridine-2,3-diamine]: 6 nM; `CC(C)(C)Nc1ccc(-c2ccncc2)nc1NC1CCCC1` [Compound L-04, N^3-tert-butyl-N^2-cyclopentyl-6-(4-pyridyl)pyridine-2,3-diamine]: 5 nM.
Regarding `CCCCC(O)c1nc2c(c(N3CCCC3)n1)NCCC2` (centres unmarked) [Compound E-09], half-maximal inhibition (IC50) was put at 492 nM.
In the case of `Cc1ccc(-c2ccc(NC(C)(C)C)c(NC3CCCC3)n2)cc1` [Compound A-98, N^3-tert-butyl-N^2-cyclopentyl-6-(p-tolyl)pyridine-2,3-diamine], the IC50 worked out at 7 nM.
With `CCCCCc1nc2c(c(NC3CCCC3)n1)NC(C)(C)CC2` [Compound B-917, N-cyclopentyl-6,6-dimethyl-2-pentyl-5H,6H,7H,8H-pyrido[3,2-d]pyrimidin-4-amine], the IC50 is > 3000 nM.
On the same count and under the same terms, next, `CC(=O)c1nc2c(c(NC3CCCC3)n1)NCCC2` [Compound C-92, 1-[4-(cyclopentylamino)-5,6,7,8-tetrahydropyrido[3,2-d]pyrimidin-2-yl]ethanone]: 2070 nM.
Compound `CC1(Nc2nc(-c3ccc(F)cc3)nc3c2NCCC3)CCOC1` (centres unmarked) [Compound M-14, 2-(4-fluorophenyl)-N-(3-methyltetrahydrofuran-3-yl)-5,6,7,8-tetrahydropyrido[3,2-d]pyrimidin-4-amine] showed an IC50 of 29 nM.
The same measure, in the same setting: next, `CCOC(=O)c1cc(N)c2c(c1)CCC(C)(C)N2` [Compound B-256]: 3820 nM.
With `CCCCC(=O)c1cc2c3c(c1)nc(C(F)(F)F)n3CCC2` [Compound B-099, 1-[2-(trifluoromethyl)-1,3-diazatricyclo[6.3.1.04,12]dodeca-2,4 (12),5,7-tetraen-6-yl]pentan-1-one], the IC50 was > 3000 nM.
On to `CCC(C)Nc1ccc(-c2ccncc2)nc1NC(C)(C)C` (centres unmarked) [Compound P-22], for which half-maximal inhibition (IC50) required 1 nM.
On the same count and under the same terms, the value for `CCCCC(=O)c1cc2c(c(NC(C)(C)C)n1)NCCC2` [Compound S-168, 1-[8-(tert-butylamino)-1,2,3,4-tetrahydro-1,7-naphthyridin-6-yl]pentan-1-one] was 13 nM.
The compound `CCOC(=O)c1cc2c(c(NC3CCCC3)c1)NC(C)(C)CC2` [Compound B-273, Ethyl 8-cyclopentylamino-2,2-dimethyl-3,4-dihydro-1H-quinoline-6-carboxylate] returned an IC50 of 1040 nM.
As for `CCC(C)Nc1ccc(C(F)(F)F)nc1NC1CCCC1` (centres unmarked) [Compound K-65, N^2-cyclopentyl-N^3-sec-butyl-6-(trifluoromethyl)pyridine-2,3-diamine], the IC50 was 45 nM.
Consider `OC(c1ccc(F)cc1)c1nc2c(c(NC3CCCC3)n1)NCCC2` (centres unmarked) [Compound A-11, [4-(cyclopentylamino)-5,6,7,8-tetrahydropyrido[3,2-d]pyrimidin-2-yl]-(4-fluorophenyl)methanol], for which the 50% inhibitory concentration (IC50) amounted to 36 nM.

Still in this assay, the particulars now being: Rattus norvegicus, N27, 24 h, ferroptosis induced by 0.5 μM RSL3, 24 hours, viability by MTT, cell unit uM.
`CNC(=O)c1nc(-c2ccc(C)cc2)nc2c1NC(C)(C)N2C1CCCC1` [Compound K-34]: the IC50 was > 10000 nM.
